Source: ChEMBL document CHEMBL5523761 (J Med Chem, 2024)

How the values were obtained:
D(1A) dopamine receptor [1] = target: T1, D(1A) dopamine receptor (Homo sapiens, UniProt P21728)
Description: Binding affinity to D1 receptor (unknown origin) assessed as inhibition constant

D(2) dopamine receptor [2] = target: T2, D(2) dopamine receptor (Homo sapiens, UniProt P14416)
Description: Binding affinity to D2S receptor (unknown origin) assessed as inhibition constant

D(3) dopamine receptor = D(3) dopamine receptor (Homo sapiens, UniProt P35462)
Description: Binding affinity to D3 receptor (unknown origin) assessed as inhibition constant

D(2) dopamine receptor [3] = target: T2, D(2) dopamine receptor; remark: listed apart in the source
Description: Binding affinity to D2 receptor (unknown origin) assessed as inhibition constant

Acetylcholinesterase = Acetylcholinesterase (Homo sapiens, UniProt P22303)
Description: Inhibition of AChE (unknown origin) by Ellman's colorimetric method

Beta-secretase 1 = Beta-secretase 1 (Homo sapiens, UniProt P56817)
Description: Inhibition of BACE1 (unknown origin) by FRET assay

Cholinesterase = Cholinesterase (Homo sapiens, UniProt P06276)
Description: Inhibition of BChE (unknown origin) by Ellman's colorimetric method

[4] = target: T3, Amine oxidase [flavin-containing] B (Homo sapiens, UniProt P27338)
T3 sequence (P27338 whole entry): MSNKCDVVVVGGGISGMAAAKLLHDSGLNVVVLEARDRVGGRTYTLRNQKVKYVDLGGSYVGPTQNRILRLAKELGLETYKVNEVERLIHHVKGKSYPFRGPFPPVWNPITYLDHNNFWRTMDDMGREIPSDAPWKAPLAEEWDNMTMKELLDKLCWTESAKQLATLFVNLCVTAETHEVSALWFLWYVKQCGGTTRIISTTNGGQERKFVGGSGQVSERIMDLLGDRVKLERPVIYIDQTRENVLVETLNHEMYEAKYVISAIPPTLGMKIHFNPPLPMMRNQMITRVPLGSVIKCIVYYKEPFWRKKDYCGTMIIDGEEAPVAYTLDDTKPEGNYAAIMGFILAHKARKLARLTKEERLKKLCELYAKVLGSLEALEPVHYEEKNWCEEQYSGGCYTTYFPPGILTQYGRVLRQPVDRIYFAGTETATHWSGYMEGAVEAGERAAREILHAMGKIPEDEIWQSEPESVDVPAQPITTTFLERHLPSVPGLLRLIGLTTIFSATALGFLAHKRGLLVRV
Description: Inhibition of MAO-B (unknown origin) measured by MAO-GloTM method

[5] = target: T4, Amine oxidase [flavin-containing] A (Homo sapiens, UniProt P21397)
T4 sequence (P21397 whole entry): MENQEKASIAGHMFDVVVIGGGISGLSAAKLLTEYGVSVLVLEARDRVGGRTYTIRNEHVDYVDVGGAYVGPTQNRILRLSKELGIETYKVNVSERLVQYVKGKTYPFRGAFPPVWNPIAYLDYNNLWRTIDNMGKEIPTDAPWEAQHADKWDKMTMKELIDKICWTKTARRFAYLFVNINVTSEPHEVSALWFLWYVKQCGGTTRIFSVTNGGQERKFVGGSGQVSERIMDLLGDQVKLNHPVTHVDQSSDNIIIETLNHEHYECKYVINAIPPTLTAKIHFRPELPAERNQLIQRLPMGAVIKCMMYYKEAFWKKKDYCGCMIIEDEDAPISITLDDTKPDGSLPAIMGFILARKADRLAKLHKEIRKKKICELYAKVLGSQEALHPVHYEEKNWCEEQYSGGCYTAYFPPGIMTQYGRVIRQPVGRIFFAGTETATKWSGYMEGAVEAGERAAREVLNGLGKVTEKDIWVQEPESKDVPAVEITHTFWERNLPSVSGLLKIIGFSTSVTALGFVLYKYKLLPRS
Description: Inhibition of MAO-A (unknown origin) measured by MAO-GloTM method

D(4) dopamine receptor [6] = target: T5, D(4) dopamine receptor (Homo sapiens, UniProt P21917)
T5 sequence (P21917 whole entry): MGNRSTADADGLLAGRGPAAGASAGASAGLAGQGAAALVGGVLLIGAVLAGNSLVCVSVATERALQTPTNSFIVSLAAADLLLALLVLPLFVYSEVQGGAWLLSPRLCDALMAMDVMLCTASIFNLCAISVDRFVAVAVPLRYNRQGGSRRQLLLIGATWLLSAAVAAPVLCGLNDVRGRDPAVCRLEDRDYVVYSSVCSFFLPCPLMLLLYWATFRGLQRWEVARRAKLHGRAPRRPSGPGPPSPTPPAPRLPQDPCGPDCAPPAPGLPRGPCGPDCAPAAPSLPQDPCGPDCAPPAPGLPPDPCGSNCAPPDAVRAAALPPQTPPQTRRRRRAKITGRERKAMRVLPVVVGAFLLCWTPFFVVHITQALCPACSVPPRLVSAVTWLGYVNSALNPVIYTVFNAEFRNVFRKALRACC
Description: Agonist activity at D4 receptor (unknown origin)

D(2) dopamine receptor [7] = target: T2, D(2) dopamine receptor; remark: listed apart in the source
Description: Inhibition of D2 receptor (unknown origin)

D(1A) dopamine receptor [8] = target: T1, D(1A) dopamine receptor; remark: listed apart in the source
Description: Inhibition of D1 receptor (unknown origin)

D(2) dopamine receptor [9] = target: T2, D(2) dopamine receptor; remark: listed apart in the source
D(2) dopamine receptor [10] = target: T2, D(2) dopamine receptor; remark: listed apart in the source
D(2) dopamine receptor [11] = target: T2, D(2) dopamine receptor; remark: listed apart in the source
Description: Antagonist activity at D2 receptor (unknown origin)

[12] = target: T6, Alpha-1A adrenergic receptor (Homo sapiens, UniProt P35348)
T6 sequence (P35348 whole entry): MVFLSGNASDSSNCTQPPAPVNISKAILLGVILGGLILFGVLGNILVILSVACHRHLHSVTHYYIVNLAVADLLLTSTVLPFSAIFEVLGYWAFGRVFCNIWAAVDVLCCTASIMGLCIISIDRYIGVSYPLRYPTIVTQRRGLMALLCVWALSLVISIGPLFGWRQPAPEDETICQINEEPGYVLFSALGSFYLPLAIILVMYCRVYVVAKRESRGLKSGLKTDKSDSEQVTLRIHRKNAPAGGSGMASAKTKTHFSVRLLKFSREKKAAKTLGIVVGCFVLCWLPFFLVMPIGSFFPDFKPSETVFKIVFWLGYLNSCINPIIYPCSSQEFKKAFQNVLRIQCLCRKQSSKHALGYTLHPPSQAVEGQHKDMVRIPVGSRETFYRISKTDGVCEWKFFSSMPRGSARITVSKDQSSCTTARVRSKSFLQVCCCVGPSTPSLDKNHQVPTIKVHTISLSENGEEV
Description: Binding affinity to alpha1A adrenergic receptor (unknown origin) assessed as inhibition constant

D(2) dopamine receptor [13] = target: T2, D(2) dopamine receptor; remark: listed apart in the source
Description: Binding affinity to D2L receptor (unknown origin) assessed as inhibition constant

D(4) dopamine receptor [14] = target: T5, D(4) dopamine receptor; remark: listed apart in the source
Description: Binding affinity to D4 receptor (unknown origin) assessed as inhibition constant

[15] = target: 5-hydroxytryptamine receptor 1B (Homo sapiens, UniProt P28222)
Description: Binding affinity to 5HT1B receptor (unknown origin) assessed as inhibition constant

[16] = target: 5-hydroxytryptamine receptor 2A (Homo sapiens, UniProt P28223)
Description: Binding affinity to 5HT2A (unknown origin) assessed as inhibition constant

[17] = target: 5-hydroxytryptamine receptor 1D (Homo sapiens, UniProt P28221)
Description: Binding affinity to 5HT1D receptor (unknown origin) assessed as inhibition constant

[18] = target: 5-hydroxytryptamine receptor 7 (Homo sapiens, UniProt P34969)
Description: Binding affinity to 5HT7 receptor (unknown origin) assessed as inhibition constant

[19] = target: T7, 5-hydroxytryptamine receptor 2C (Homo sapiens, UniProt P28335)
T7 sequence (P28335 whole entry): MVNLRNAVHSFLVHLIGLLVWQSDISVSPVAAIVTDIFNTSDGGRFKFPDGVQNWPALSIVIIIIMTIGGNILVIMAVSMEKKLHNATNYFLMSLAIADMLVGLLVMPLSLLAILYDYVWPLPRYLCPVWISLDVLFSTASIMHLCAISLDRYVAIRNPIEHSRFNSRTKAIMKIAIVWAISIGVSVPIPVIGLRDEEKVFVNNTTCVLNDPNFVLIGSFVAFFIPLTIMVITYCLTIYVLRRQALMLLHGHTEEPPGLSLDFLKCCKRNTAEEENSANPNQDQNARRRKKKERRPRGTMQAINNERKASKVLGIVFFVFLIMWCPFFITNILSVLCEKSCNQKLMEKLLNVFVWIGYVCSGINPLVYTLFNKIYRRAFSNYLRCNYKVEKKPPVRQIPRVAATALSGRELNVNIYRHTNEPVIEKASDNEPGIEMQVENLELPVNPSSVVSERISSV
Description: Binding affinity to 5HT2C receptor (unknown origin) assessed as inhibition constant

[20] = target: T8, Alpha-2C adrenergic receptor (Homo sapiens, UniProt P18825)
T8 sequence (P18825 whole entry): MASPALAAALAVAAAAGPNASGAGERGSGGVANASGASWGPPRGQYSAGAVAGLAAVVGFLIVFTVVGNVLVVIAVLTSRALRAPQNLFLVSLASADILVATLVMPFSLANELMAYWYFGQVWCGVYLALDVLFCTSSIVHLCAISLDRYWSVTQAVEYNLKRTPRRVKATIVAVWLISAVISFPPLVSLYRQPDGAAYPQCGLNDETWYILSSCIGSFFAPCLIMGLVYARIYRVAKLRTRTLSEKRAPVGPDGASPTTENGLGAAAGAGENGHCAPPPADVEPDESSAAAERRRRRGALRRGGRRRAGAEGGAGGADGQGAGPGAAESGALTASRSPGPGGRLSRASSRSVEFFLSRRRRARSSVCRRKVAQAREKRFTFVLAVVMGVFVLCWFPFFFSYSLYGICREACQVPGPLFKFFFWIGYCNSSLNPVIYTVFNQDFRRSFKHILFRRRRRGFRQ
Description: Binding affinity to alpha2C adrenergic receptor (unknown origin) assessed as inhibition constant

T1 sequence (P21728 whole entry): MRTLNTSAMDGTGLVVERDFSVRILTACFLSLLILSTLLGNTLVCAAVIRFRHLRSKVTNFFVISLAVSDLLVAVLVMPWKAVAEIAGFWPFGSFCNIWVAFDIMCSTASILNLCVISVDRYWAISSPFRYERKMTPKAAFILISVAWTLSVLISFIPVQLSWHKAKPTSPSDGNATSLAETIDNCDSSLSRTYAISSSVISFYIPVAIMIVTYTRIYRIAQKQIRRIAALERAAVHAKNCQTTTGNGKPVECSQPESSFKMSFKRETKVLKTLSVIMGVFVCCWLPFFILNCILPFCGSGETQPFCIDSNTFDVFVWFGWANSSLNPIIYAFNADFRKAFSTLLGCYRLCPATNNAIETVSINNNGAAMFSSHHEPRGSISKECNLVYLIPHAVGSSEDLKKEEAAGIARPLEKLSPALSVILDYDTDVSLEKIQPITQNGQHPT
T2 sequence (P14416 whole entry): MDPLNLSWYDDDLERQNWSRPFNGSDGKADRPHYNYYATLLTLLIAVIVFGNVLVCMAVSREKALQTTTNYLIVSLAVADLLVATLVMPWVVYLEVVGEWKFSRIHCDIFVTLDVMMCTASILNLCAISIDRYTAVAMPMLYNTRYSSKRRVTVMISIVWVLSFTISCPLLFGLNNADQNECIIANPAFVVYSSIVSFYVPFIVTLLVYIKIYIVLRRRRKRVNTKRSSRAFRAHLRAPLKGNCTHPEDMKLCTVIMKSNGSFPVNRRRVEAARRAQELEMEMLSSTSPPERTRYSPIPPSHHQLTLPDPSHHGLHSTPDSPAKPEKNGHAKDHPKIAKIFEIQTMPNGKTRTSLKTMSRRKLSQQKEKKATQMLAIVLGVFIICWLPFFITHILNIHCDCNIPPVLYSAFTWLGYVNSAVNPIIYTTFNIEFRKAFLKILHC
Chain of D(3) dopamine receptor (P35462 whole entry): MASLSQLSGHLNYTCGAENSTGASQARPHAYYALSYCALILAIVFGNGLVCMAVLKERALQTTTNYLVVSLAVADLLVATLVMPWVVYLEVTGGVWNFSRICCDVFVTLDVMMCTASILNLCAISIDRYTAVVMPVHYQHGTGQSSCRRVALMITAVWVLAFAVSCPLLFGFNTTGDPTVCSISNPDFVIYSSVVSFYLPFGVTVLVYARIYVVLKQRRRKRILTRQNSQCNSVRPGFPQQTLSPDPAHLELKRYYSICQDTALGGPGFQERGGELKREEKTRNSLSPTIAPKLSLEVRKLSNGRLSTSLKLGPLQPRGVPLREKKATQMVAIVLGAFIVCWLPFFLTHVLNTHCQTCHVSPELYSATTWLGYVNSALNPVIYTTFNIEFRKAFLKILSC
Chain of Cholinesterase (P06276 whole entry): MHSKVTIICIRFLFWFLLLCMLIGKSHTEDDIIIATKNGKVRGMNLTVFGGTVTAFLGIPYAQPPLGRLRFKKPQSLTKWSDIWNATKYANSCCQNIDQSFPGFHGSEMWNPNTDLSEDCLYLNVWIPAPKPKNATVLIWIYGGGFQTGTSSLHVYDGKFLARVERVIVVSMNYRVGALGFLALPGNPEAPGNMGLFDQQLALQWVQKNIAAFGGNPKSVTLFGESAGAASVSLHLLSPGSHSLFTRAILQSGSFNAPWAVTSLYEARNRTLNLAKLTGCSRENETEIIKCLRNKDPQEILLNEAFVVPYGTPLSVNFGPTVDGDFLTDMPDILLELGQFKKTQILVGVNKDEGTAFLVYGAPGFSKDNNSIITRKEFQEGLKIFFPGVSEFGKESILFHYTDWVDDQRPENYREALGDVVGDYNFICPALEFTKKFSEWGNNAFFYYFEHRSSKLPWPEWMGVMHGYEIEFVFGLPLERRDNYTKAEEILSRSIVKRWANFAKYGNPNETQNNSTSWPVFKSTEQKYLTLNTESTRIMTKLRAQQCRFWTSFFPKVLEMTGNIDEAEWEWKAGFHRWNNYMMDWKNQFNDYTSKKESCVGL
Chain of 5-hydroxytryptamine receptor 1B (P28222 whole entry): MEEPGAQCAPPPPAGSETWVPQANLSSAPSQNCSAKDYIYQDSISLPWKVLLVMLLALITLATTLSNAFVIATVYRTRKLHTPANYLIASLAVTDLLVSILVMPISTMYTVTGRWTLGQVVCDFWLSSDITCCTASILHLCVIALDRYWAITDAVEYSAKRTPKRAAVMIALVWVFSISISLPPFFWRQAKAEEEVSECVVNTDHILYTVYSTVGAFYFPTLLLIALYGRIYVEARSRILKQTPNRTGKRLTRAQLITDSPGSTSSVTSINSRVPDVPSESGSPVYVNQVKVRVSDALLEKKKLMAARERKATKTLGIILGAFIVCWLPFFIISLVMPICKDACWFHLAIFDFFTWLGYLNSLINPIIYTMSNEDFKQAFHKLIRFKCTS
Chain of 5-hydroxytryptamine receptor 2A (P28223 whole entry): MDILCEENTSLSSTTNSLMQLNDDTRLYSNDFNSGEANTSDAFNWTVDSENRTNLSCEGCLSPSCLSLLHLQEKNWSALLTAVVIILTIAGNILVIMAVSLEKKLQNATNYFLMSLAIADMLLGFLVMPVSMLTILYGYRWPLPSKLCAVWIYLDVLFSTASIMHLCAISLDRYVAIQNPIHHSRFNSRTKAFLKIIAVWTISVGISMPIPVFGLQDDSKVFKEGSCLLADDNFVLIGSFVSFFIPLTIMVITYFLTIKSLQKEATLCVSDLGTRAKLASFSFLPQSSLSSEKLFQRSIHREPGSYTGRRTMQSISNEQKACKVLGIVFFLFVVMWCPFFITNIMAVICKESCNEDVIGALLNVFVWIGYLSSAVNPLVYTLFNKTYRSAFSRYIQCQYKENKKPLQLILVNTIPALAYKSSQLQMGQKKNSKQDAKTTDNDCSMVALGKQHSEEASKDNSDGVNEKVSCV
Chain of 5-hydroxytryptamine receptor 7 (P34969 whole entry): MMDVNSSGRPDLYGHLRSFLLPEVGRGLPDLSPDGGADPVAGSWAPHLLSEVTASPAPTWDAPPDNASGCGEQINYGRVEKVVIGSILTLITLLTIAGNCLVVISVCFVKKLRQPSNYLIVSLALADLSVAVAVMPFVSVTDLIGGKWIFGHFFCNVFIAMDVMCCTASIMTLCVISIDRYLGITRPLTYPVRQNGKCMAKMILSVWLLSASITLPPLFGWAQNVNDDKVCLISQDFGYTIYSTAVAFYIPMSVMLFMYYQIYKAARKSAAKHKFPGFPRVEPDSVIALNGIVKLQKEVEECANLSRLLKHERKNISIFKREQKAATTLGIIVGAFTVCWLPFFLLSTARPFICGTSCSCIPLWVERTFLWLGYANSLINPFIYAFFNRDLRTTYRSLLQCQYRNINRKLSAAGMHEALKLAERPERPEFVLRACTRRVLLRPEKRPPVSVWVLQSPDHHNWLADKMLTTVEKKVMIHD
Chain of Beta-secretase 1 (P56817 whole entry): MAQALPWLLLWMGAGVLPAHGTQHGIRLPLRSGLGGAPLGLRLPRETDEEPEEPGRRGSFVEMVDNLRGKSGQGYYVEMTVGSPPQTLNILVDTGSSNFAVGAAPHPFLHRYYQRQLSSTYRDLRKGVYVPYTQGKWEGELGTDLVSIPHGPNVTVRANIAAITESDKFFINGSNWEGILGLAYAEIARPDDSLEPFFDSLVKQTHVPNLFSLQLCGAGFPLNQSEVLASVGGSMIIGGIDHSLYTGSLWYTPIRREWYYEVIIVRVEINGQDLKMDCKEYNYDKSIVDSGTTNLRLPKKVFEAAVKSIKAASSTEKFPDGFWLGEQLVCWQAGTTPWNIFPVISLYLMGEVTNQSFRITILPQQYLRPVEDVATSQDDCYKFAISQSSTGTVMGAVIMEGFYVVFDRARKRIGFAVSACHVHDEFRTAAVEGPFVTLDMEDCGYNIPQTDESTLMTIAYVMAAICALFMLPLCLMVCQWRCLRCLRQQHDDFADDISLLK
Chain of 5-hydroxytryptamine receptor 1D (P28221 whole entry): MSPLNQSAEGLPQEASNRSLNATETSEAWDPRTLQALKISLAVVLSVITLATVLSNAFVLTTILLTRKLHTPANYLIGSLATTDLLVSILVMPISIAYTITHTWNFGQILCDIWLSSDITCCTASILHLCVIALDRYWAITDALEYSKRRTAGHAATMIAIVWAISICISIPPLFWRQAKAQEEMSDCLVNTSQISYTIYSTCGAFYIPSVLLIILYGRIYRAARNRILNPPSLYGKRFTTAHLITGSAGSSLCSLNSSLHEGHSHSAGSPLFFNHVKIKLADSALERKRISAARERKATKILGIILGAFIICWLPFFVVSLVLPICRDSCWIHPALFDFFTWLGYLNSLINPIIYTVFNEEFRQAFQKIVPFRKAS
Chain of Acetylcholinesterase (P22303 whole entry): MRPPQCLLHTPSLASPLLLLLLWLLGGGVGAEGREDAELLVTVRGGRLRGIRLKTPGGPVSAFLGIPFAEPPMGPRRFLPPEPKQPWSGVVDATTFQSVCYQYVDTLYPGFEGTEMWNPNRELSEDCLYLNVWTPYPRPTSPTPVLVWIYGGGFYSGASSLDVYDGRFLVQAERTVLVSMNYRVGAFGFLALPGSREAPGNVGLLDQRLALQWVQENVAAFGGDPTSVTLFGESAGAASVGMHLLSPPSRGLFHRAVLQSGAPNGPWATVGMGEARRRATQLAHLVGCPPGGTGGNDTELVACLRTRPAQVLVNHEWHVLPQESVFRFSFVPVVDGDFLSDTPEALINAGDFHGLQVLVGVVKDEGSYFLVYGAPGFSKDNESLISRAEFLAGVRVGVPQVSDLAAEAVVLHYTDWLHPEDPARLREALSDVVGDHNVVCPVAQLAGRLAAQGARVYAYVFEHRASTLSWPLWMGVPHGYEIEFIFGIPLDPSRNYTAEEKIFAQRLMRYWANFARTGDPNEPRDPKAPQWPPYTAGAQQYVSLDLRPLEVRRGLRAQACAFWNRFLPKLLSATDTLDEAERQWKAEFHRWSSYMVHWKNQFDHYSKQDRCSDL

CCCN1CCc2cc(OCCCF)cc3c2[C@H]1Cc1cccc(O)c1-3
Ki (D(1A) dopamine receptor [1]): 0.54 nM

CCN1CCc2cc(OCCF)cc3c2[C@H]1Cc1cccc(O)c1-3
Ki (D(1A) dopamine receptor [1]): 0.83 nM

COc1cc2c(cc1O)CN1CCc3cc(OC)c(O)cc3[C@@H]1C2
Ki (D(2) dopamine receptor [2]): 514 nM

Oc1cc2c(cc1O)C1Cc3cccc(O)c3CN1CC2 (stereo unspecified)
Ki (D(3) dopamine receptor): 93 nM | Ki (D(1A) dopamine receptor [1]): 3800 nM

CCCN1CCc2cccc3c2[C@H]1Cc1cccc(OC(C)=O)c1-3
Ki (D(2) dopamine receptor [3]): 72.3 nM | Ki (D(1A) dopamine receptor [1]): > 10000 nM

CCCN1CCc2cccc3c2[C@H]1Cc1cccc(O)c1-3
Ki (D(1A) dopamine receptor [1]): 699 nM

CCCCC(=O)Oc1cccc2c1-c1cccc3c1[C@@H](C2)N(CCC)CC3
Ki (D(2) dopamine receptor [3]): 340 nM | Ki (D(1A) dopamine receptor [1]): > 20000 nM

C=C(C)[C@H](CC=C(C)C)Cc1c(O)cc(OC)c2c1O[C@H](c1ccc(O)cc1O)CC2=O
IC50 (Acetylcholinesterase): 42100 nM | IC50 (Beta-secretase 1): 24500 nM | IC50 (Cholinesterase): 5290 nM

OCc1c(Br)c(O)c(O)c(Br)c1Br
IC50 [4]: 151000 nM | IC50 [5]: 205000 nM | EC50 (D(4) dopamine receptor [6]): 57200 nM

COc1cc2c(cc1OC)Oc1c(O)ccc3c1[C@@H](C2)N(C)CC3
IC50 (D(2) dopamine receptor [7]): 320 nM | IC50 (D(1A) dopamine receptor [8]): 80 nM

COC1=CC2C[C@@H]3c4cc(O)c(OC)cc4CCN3CC2C=C1O (stereo partly specified)
Ki (D(3) dopamine receptor): 606 nM | Ki (D(2) dopamine receptor [2]): 708 nM | Ki (D(1A) dopamine receptor [1]): 8.75 nM

COc1cc2c(cc1O)C[C@@H]1c3c(ccc(O)c3O2)CCN1C
IC50 (D(2) dopamine receptor [7]): 220 nM | IC50 (D(1A) dopamine receptor [8]): 100 nM

COc1ccc(C[C@H]2c3cc(O)c(OC)cc3CCN2C)cc1O [(S)-RETICULINE]
IC50 (D(2) dopamine receptor [7]): 470 nM | IC50 (D(1A) dopamine receptor [8]): 1800 nM

C=C1CCC[C@]2(C)Cc3occ(C)c3C[C@@H]12 [ATRACTYLON]
IC50 (D(2) dopamine receptor [7]): 2500 nM

COc1ccc2cc3[n+](cc2c1OC)CCc1cc2c(cc1-3)OCO2 [BERBERINE CHLORIDE]
IC50 (D(2) dopamine receptor [9]): 17100 nM | IC50 (D(2) dopamine receptor [10]): 38600 nM

COc1cc2c(cc1O)C[C@H]1c3c(cc(O)c(OC)c3-2)CCN1C [BOLDINE]
IC50 (D(2) dopamine receptor [11]): 520 nM

CC(C)C[C@H]1C(=O)N2CCC[C@H]2[C@]2(O)O[C@](NC(=O)[C@@H]3C=C4c5cccc6[nH]c(Br)c(c56)C[C@H]4N(C)C3)(C(C)C)C(=O)N12 [BROMOCRIPTINE]
Ki [12]: 18 nM | Ki (D(1A) dopamine receptor [1]): 3420 nM

C=CCN1C[C@H](C(=O)N(CCCN(C)C)C(=O)NCC)C[C@@H]2c3cccc4[nH]cc(c34)C[C@H]21 [CABERGOLINE]
Ki (D(2) dopamine receptor [3]): 0.36 nM | Ki (D(2) dopamine receptor [13]): 0.36 nM | Ki (D(1A) dopamine receptor [1]): 3800 nM

COc1cc2c(cc1O)Oc1c(O)ccc3c1[C@H](C2)N(C)CC3 [CELTISINE]
IC50 (D(2) dopamine receptor [7]): 30 nM | IC50 (D(1A) dopamine receptor [8]): 60 nM

OCCN1CCN(CCCN2c3ccccc3Sc3ccc(C(F)(F)F)cc32)CC1 [FLUPHENAZINE]
Ki (D(4) dopamine receptor [14]): 130 nM

COc1cc2c(cc1OC)-c1c(OC)c(OC)cc3c1[C@H](C2)N(C)CC3 [GLAUCINE]
IC50 (D(2) dopamine receptor [11]): 3020 nM

Cc1nc2n(c(=O)c1CCN1CCC(c3noc4cc(F)ccc34)CC1)CCCC2O (stereo unspecified) [PALIPERIDONE]
Ki (D(3) dopamine receptor): 7.5 nM | Ki [15]: 111 nM | Ki [16]: 0.83 nM | Ki (D(2) dopamine receptor [3]): 1.6 nM | Ki [12]: 11 nM | Ki [17]: 7.3 nM | Ki [18]: 6.8 nM | Ki [19]: 19 nM | Ki (D(1A) dopamine receptor [1]): 554 nM | Ki [20]: 2.7 nM

CCCN1C[C@H](CSC)C[C@@H]2c3cccc4[nH]cc(c34)C[C@H]21 [PERGOLIDE]
Ki [12]: 888 nM

COc1cc2c(cc1O)[C@@H]1Cc3ccc(O)c(OC)c3CN1CC2 [STEPHOLIDINE]
Ki (D(3) dopamine receptor): 23.4 nM | Ki (D(4) dopamine receptor [14]): 1450 nM | Ki (D(2) dopamine receptor [3]): 11.6 nM | Ki (D(1A) dopamine receptor [1]): 5.1 nM

COc1cc2c(cc1OC)[C@@H]1Cc3ccc(OC)c(OC)c3CN1CC2 [TETRAHYDROPALMATINE]
Ki (D(2) dopamine receptor [3]): 388 nM | Ki (D(1A) dopamine receptor [1]): 124 nM
